According to EP0164904B1, “Method of determining an infusion rate profile and infusion device” (THE UNIVERSITY OF MELBOURNE, priority 1984, dated 1985):

Tests used:
[1] = Plasma Drug Efflux profile derived from actual infusion data (iterative infusion method, scaled to Lean Body Mass); assay type: in vivo, human subjects; conditions: Figure 9, after three iterations
Source text: Central to the approach used in this method is the development of a new concept in pharmacokinetics, the Plasma Drug Efflux. This concept simply stated is that at any instant, if the plasma concentration of a drug is neither rising nor falling, the rate of delivery of the drug to the circulation ie. the infusion rate, must equate to the rate at which the drug is being lost from the circulation. It is - unimportant whether the loss is by distribution, metabolism or excretion.
Then if drug is administered by some arbitrary infusion scheme Q(t), the plasma concentration is C(t) and the rate of drug loss from the plasma may be called the Plasma Drug Efflux, Ep(t).
If the plasma drug concentration is constant so that the amount of drug is not changing then the instantaneous rate of drug influx to the plasma (the infusion rate), and the instantaneous concentration in the plasma may be used as an estimate of drug efflux from the plasma, is an estimate of i.e.: [drawing 1]
The efflux estimate may then be plotted against time, and will essentially describe a dosing-rate/concentration profile as a function of time which will result in a plateau concentration for all time. […]

[2] = Infusion generated from the Efflux profile; arterial plasma concentration followed over the infusion period; assay type: in vivo, patient
Source text: Describing first the preferred method of defining a generalised infusion rate profile as applied to anaesthetic drugs, the method comprises the steps of: • (a) first determining the lean body mass (LBM) of a group of subjects. A convenient way of doing this in human subjects is to use the method described by Hallynck T.H. et al in "Should clearance be normalized to body surface of to lean body mass?" in British Journal of Clinical Pharmacology, p 523-526, Volume 11, (1981), who presented the following formulae:- Males: LBM = 1.10 x weight - 128 x (weight²/height²) Females: LBM = 1.07 x weight - 148 x (weight²/height²) • (b) Following administration of a suitable bolus dose of a desired drug to achieve unconsciousness, the drug is infused at an arbitrary but known rate throughout the infusion. […]

[3] = plasma concentration, cited from earlier work

C=CCC1(C(C)C#CCC)C(=O)N=C(O)N(C)C1=O (centres unmarked) [methohexitone]
shape of the Plasma Drug Efflux profile [1]: bears little relationship to an exponential function, having two distinct humps | arterial plasma drug concentrations ([2]; infusion by Efflux profile of Figure 9 in a typical patient (Figure 10), over a period of five hours): constant and desired arterial plasma drug concentrations | departures from the desired level ([2]; infusion by Efflux profile, many patients): no material departures from the desired level in any patient | concentration likely to result in wakening of the patient ([3]; fall to below): below 3 mg/l | concentration at which severe depression of the heart and breathing may occur [3]: 10 µg/mL
